Measurements: ChEMBL document CHEMBL6134930, “Discovery of AB801, a Potent and Selective Inhibitor of AXL Receptor Tyrosine Kinase for Use in Cancer Therapy” (J Med Chem, 2025)

What was measured:
[1] = biological target: T1, Tyrosine-protein kinase receptor UFO (Homo sapiens, UniProt P30530); assay: Inhibition of human AXL measured after 150 mins by ATP-competitive HTRF based biochemical assay
T1 sequence (P30530 whole entry): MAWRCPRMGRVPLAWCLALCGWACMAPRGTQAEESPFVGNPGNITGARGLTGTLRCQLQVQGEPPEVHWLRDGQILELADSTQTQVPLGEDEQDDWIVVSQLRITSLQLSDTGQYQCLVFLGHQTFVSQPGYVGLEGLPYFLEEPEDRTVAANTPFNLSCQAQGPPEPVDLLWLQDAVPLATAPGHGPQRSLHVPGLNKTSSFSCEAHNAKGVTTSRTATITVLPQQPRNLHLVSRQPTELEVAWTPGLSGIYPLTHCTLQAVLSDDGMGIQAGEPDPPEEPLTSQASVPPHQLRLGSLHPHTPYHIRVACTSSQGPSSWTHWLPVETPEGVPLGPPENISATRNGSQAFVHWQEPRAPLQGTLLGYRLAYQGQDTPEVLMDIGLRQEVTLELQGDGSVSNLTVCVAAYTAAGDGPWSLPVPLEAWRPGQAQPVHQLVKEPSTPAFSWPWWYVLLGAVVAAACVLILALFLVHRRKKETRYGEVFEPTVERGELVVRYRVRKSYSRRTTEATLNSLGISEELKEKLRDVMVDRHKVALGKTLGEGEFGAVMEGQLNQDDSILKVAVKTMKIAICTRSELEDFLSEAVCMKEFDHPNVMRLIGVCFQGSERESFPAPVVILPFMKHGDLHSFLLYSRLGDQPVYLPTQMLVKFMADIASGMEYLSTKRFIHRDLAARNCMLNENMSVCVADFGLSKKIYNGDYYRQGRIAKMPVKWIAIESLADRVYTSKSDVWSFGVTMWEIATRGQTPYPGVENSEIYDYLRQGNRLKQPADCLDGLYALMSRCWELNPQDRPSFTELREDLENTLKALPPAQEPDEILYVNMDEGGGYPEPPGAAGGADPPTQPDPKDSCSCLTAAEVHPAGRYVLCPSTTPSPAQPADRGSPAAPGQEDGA

[2] = biological target: T2, CYP1A2 (Homo sapiens, UniProt P05177); assay: Time dependent inhibition of CYP1A2 (unknown origin) at 30 uM measured after 30 mins relative to control; format: ADME; details: read-out: TDI
T2 sequence (P05177 whole entry): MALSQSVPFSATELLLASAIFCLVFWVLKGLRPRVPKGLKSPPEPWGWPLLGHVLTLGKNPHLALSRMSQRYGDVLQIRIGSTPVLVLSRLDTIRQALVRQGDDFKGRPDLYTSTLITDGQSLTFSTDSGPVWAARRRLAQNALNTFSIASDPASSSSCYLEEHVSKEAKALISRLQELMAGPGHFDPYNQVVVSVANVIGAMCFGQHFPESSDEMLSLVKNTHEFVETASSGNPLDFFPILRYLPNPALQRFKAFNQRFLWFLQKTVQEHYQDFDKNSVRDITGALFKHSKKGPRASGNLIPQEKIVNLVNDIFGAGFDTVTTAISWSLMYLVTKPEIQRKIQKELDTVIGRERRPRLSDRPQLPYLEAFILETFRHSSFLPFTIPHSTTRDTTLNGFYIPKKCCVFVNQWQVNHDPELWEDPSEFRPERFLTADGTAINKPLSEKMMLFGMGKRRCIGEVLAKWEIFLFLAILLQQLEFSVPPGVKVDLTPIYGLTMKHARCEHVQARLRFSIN

[3] = biological target: CYP2C9 (Homo sapiens, UniProt P11712); assay: Time dependent inhibition of CYP2C9 (unknown origin) at 30 uM measured after 30 mins relative to control; format: ADME; details: read-out: TDI
[4] = biological target: T3, Cytochrome P450 2B6 (Homo sapiens, UniProt P20813); assay: Inhibition of CYP2B6 (unknown origin) measured after 30 mins; format: ADME
T3 sequence (P20813 whole entry): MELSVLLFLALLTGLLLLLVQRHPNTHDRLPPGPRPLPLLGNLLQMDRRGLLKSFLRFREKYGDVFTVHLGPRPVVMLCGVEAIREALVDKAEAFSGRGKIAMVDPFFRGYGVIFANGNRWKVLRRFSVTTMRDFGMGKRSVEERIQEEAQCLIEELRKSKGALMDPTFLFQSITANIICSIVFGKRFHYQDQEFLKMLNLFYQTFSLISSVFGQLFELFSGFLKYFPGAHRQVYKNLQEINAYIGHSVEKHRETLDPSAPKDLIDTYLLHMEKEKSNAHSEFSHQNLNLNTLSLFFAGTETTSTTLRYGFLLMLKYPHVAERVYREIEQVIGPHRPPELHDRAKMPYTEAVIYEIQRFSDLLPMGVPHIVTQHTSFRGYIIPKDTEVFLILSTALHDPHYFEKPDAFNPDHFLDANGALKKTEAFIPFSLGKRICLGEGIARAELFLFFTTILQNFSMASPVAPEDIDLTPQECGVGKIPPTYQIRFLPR

[5] = Selectivity ratio, ratio of Ki for DRAK1 (unknown origin) to Ki for AXL (unknown origin)
[6] = Half life in human (healthy individuals) at 90 mg, single oral dose; format: ADME; details: in vivo
[7] = Cmax in human (healthy individuals) at 90 mg, single oral dose measured uo to 120 hrs; format: ADME; details: in vivo
[8] = Cmax in human (healthy individuals) at 270 mg, single oral dose measured uo to 120 hrs; format: ADME; details: in vivo
[9] = AUC (0 to 24 hrs) in human (healthy individuals) at 270 mg, single oral dose; format: ADME; details: in vivo
[10] = AUC (0 to 120 hrs) in human (healthy individuals) at 10 mg, single oral dose; format: ADME; details: in vivo

CYP2C9, sequence (P11712 whole entry): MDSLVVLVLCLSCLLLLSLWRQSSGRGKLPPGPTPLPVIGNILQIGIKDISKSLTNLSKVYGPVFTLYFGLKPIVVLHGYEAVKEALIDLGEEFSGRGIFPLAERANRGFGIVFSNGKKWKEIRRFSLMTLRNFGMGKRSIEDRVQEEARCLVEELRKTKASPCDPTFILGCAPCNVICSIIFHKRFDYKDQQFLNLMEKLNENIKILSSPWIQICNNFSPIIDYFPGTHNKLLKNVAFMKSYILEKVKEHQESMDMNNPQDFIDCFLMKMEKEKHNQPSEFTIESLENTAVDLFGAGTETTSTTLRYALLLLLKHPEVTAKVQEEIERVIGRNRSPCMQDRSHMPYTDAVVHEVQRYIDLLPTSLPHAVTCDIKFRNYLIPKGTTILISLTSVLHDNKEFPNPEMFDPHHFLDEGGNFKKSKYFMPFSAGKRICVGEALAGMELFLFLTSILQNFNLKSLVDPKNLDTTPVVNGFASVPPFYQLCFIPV

Work on `Cc1cccnc1-c1ccc(-c2n[nH]c3ncc(-c4ccc5c(c4)CC[C@@H](N4C6COCC4C6)CC5)cc23)nc1` yielded an IC50 [1] of 1.8 nM, an inhibition at 0.5 h, 30 µM [2] of 0% and an inhibition at 0.5 h, 30 µM [3] of 10%. It also gave an IC50 [4] of over 100000 nM, a Ratio Ki [5] of 47 and a half-life [6] of 54 h. For the same compound, the Cmax [7] was 40 ng/mL, the Cmax [8] was 153 ng/mL and the AUC(0-t) [9] was 2580 ng·h/mL. It also gave an AUC(0-t) [10] of 180 ng·h/mL.
